Data taken from ChEMBL document CHEMBL1201862, “PubChem BioAssay data set” (2004).
Calls of active or inactive are those of the source.

Assays:
HEK293 = test: cells; format: functional, cell-based; conditions: Homo sapiens
[1] = target: T1, Nuclear receptor subfamily 0 group B member 1 (Homo sapiens, UniProt P51843); test: Luminescence-based cell-based high throughput dose response assay for inhibitors of the orphan nuclear receptor subfamily 0, group B, member 1 (DAX1; NR0B1). [Related pubchem assays (depositor defined):AID504766, AID504790]; format: functional
T1 sequence (P51843 whole entry): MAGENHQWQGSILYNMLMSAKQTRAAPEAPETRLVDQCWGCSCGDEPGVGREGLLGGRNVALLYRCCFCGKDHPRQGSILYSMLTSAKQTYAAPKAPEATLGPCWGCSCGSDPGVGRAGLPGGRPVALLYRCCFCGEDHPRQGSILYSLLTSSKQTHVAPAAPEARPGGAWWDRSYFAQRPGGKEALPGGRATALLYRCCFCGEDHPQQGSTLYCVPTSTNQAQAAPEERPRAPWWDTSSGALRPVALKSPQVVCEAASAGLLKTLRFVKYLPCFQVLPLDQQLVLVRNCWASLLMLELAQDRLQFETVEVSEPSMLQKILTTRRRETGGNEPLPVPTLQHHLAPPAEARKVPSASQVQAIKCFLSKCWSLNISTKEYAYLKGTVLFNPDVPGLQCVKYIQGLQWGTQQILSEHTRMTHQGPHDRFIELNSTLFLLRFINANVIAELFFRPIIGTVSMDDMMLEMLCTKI

HeLa = test: ATP-based viability loss in HeLa cells – cell-based, CellTiter-Glo luminescence, cherry-pick samples, cytotoxicity control for MITF activator project, dose response (AID 540259); format: functional; conditions: Homo sapiens
Protein skinhead-1 = target: T2, Protein skinhead-1 (Caenorhabditis elegans, UniProt P34707); format: functional
T2 sequence (P34707 whole entry): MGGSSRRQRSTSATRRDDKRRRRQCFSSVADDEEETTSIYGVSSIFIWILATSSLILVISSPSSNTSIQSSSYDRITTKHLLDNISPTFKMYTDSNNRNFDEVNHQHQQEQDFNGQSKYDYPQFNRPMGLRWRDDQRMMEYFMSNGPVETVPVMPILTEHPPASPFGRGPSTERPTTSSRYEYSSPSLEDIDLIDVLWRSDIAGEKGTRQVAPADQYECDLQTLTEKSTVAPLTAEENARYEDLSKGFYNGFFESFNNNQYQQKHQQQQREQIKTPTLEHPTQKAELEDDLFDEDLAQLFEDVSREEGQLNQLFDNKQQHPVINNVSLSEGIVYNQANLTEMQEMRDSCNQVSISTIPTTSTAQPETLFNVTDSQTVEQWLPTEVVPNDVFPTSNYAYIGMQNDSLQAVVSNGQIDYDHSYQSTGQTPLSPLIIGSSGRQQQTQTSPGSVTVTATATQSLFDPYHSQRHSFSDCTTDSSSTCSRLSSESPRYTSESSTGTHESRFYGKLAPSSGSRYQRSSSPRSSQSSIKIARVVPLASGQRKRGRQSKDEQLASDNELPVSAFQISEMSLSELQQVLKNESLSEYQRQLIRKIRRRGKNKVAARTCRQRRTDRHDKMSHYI

[2] = viability loss in HeLa cells – cytotoxicity control for MgcRacGAP inhibitor project, dose response (AID 624300); format: functional
[3] = target: FAD-linked sulfhydryl oxidase ALR (Homo sapiens, UniProt P55789); test: ALR-catalysed DTT oxidation blockers – biochemical, H2O2 detection, luminescence, cherry-pick, dose response (AID 493248)
Trypsin = Trypsin (Sus scrofa, UniProt P00761); test: trypsin protease activity blockade – biochemical, quenched peptide fluorescence, cherry-pick, selectivity assay for Rce1 protease inhibitor project, dose response (AID 488789)
CAAX prenyl protease 2 = target: T3, CAAX prenyl protease 2 (Homo sapiens, UniProt Q9Y256); test: inhibition of Ras-converting CAAX protease Rce1 – biochemical, yeast membranes, quenched-peptide fluorescence, cherry-pick, dose response (AID 588849)
T3 sequence (Q9Y256 whole entry): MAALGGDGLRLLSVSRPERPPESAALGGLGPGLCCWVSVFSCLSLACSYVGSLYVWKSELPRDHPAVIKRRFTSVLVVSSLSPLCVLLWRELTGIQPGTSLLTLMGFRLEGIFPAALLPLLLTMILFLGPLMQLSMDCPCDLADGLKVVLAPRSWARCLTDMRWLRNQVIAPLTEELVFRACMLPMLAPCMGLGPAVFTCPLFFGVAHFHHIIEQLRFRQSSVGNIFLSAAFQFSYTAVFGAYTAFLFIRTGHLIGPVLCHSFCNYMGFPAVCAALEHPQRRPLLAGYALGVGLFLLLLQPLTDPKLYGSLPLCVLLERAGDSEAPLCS

[4] = target: T4, Rac GTPase-activating protein 1 (Homo sapiens, UniProt Q9H0H5); test: blockers of MgcRacGAP-driven Rac1 GTP hydrolysis – biochemical, ADP Hunter fluorescence, primary and confirmatory, confirmation (AID 624330); format: functional
T4 sequence (Q9H0H5 whole entry): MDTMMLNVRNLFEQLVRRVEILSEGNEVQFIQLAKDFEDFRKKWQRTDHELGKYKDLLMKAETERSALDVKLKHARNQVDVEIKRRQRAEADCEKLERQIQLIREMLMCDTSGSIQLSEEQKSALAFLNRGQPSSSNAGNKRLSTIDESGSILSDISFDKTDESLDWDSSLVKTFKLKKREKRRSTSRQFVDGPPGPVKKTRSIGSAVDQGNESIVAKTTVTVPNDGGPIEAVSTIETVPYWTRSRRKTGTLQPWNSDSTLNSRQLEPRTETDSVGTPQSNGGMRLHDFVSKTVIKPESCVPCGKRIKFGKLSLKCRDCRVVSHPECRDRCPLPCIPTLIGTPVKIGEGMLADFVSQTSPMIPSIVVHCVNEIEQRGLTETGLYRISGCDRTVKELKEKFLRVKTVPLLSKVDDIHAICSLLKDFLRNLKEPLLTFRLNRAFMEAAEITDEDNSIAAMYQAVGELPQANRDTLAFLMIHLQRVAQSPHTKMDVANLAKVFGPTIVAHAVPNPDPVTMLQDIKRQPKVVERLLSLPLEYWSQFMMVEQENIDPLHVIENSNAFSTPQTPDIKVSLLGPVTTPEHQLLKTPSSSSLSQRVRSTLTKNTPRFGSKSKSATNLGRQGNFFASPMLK

A-375 = test: proliferation inhibition in MITF-low A375 cells – cell-based, cherry-pick samples, set 2, counter-screen for MITF modulator project, dose response (AID 540335); format: functional; conditions: Homo sapiens
[5] = Luminescence Cell-Based Dose Retest to Confirm Inhibitors of Cancer Stem Cells. [Related pubchem assays (depositor defined):AID2717, AID2721]; format: functional; conditions: Homo sapiens
[6] = target: T5, Ubiquitin-conjugating enzyme E2 N (Homo sapiens, UniProt P61088); format: functional;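 note: Dose-response confirmation in a TR-FRET assay detecting UBC13-driven polyubiquitin chain formation, inhibition measured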
T5 sequence (P61088 whole entry): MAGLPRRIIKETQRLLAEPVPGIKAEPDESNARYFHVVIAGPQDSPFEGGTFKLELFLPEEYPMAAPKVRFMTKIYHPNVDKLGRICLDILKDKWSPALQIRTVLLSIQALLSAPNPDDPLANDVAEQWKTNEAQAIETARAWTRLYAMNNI

[7] = A cytotoxicity screen of small molecule inhibitors of the PhoP region in Salmonella typhi identified in the primary screen. [Related pubchem assays: 1850, 1864, 1985 ]; format: functional
[8] = target: T6, Small ubiquitin-related modifier 1 (Homo sapiens, UniProt P63165); test: SUMO1 protein interaction blockers, potency – biochemical, fluorescence polarization, uHTS hits, dose response (AID 624382); format: functional; conditions: read-out: IC50_Mean
Streptococcus = test: GAS UMAA2166 growth inhibition – luminescence, BacTiterGlo, counter-screen for streptokinase expression inhibitor project, dose response (AID 1915); format: functional, organism-based;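 note: potency for reduction of bacterial viability or growth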
[9] = target: Induced myeloid leukemia cell differentiation protein Mcl-1 (Homo sapiens, UniProt Q07820); format: functional
[10] = target: T6, Small ubiquitin-related modifier 1; test: SUMO1 protein-protein binding blockers, potency – biochemical, FRET, dose response (AID 624383); format: functional; conditions: read-out: IC50_Mean
[11] = tested on: Streptococcus sp. 'group A'; test: Streptococcus pyogenes SK(-)GAS viability under kanamycin – luminescence, BacTiterGlo, confirmation, counter-screen for streptokinase expression inhibitor project, dose response (AID 1900); format: functional, organism-based
Streptokinase A = target: T7, Streptokinase A (Streptococcus pyogenes serotype M1, UniProt P10520); test: viability-normalized secreted streptokinase activity reduction – plasminogen activation absorbance, OD405, dose response (AID 1914); format: functional, Streptococcus pyogenes M1 GAS;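 note: secreted streptokinase activity via plasminogen activation per viability signal from cell pellet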
T7 sequence (P10520 whole entry): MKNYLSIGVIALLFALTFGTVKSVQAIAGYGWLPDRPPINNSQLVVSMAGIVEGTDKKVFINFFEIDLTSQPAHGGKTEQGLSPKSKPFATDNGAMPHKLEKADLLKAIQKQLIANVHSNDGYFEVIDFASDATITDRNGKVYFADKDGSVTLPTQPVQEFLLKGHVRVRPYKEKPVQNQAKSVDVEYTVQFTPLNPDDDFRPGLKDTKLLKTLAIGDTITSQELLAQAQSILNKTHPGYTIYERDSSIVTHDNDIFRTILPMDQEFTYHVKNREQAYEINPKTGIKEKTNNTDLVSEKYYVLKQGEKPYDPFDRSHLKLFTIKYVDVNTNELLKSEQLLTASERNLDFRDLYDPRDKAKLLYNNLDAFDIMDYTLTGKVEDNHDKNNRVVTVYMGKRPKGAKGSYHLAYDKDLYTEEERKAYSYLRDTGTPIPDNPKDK

[12] = target: T8, Endoribonuclease toxin MazF (Escherichia coli K-12, UniProt P0AE70); test: substrate-only fluorescence increase artefacts – biochemical, single-stranded RNase substrate, counter-screen for MazEF activator project, dose response (AID 588502); format: functional
T8 sequence (P0AE70 whole entry): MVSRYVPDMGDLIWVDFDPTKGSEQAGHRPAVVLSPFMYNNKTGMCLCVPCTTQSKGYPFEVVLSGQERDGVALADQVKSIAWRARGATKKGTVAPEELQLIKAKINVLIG

[13] = target: T8, Endoribonuclease toxin MazF; test: activation of MazEF endoribonuclease cleavage – biochemical, fluorescence, single-stranded RNA substrate, uHTS hits, dose response (AID 588481); format: functional
[14] = target: T9, RNA-binding protein pos-1 (Caenorhabditis elegans, UniProt G5EF15); test: disruptors of C. elegans POS-1 RNA interaction – biochemical, fluorescence polarization, dose response (AID 1964);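 note: purified POS-1 fused to maltose binding protein made in E. coli; potency of compounds blocking POS-1 binding to fluorescent RNA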
T9 sequence (G5EF15 whole entry): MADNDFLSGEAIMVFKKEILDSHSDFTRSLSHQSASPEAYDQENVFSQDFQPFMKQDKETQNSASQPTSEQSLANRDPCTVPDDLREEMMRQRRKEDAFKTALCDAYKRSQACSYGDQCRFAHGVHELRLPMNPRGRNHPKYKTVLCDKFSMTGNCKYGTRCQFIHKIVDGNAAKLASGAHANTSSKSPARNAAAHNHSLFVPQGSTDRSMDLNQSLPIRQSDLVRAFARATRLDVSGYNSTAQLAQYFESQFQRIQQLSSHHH

[15] = target: T10, Zinc finger protein mex-5 (Caenorhabditis elegans, UniProt Q9XUB2); test: potency of MEX-5 RNA-binding blockers – biochemical, C. elegans, fluorescence polarization, dose response (AID 1960)
T10 sequence (Q9XUB2 whole entry): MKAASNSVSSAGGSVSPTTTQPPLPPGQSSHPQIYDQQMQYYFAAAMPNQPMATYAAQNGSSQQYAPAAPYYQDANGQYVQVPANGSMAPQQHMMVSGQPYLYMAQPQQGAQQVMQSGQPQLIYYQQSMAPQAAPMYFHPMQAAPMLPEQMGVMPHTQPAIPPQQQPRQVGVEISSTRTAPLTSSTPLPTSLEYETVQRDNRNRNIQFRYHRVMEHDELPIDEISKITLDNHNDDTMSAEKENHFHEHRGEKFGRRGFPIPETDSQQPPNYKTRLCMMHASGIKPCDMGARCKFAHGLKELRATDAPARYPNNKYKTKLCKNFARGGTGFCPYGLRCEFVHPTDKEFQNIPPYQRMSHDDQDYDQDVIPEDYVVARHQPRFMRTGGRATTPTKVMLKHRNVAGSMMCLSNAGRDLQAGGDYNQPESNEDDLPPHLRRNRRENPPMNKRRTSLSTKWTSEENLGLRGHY

Cytochrome P450 3A4 = Cytochrome P450 3A4 (Homo sapiens, UniProt P08684);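 note: CYP3A4 tested as one member of a cytochrome P450 panel screen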
Cytochrome P450 2D6 = Cytochrome P450 2D6 (Homo sapiens, UniProt P10635);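 note: CYP2D6 member of a cytochrome P450 panel assay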
Chain of Cytochrome P450 2D6 (P10635 whole entry): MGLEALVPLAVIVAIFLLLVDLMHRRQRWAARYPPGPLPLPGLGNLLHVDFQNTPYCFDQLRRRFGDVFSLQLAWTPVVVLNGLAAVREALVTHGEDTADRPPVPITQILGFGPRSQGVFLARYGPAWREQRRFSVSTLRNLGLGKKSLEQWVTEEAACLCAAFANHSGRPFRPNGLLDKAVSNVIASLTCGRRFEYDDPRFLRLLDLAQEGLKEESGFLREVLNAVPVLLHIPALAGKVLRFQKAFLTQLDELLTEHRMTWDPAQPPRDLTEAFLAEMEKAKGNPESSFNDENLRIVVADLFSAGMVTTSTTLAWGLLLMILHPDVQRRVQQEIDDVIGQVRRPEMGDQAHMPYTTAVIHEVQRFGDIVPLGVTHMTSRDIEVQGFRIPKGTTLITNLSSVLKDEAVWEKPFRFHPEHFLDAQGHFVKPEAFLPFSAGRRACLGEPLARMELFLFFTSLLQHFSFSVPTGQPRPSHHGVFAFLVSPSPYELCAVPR

T6 sequence (P63165 whole entry): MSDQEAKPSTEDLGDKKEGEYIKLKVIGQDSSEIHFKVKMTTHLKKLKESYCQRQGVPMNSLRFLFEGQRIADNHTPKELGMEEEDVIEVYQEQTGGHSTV
Chain of Trypsin (P00761 whole entry): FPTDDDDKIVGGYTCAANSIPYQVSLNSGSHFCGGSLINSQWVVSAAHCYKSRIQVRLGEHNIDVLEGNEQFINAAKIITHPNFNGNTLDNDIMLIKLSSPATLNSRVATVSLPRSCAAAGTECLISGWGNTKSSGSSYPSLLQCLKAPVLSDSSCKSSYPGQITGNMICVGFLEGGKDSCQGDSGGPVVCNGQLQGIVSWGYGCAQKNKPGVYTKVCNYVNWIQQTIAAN
Chain of FAD-linked sulfhydryl oxidase ALR (P55789 whole entry): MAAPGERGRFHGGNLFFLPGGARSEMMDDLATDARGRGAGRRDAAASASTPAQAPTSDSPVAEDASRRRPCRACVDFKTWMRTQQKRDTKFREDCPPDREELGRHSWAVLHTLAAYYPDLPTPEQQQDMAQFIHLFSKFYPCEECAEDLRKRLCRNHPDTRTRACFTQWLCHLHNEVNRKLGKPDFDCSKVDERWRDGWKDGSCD
Chain of Cytochrome P450 3A4 (P08684 whole entry): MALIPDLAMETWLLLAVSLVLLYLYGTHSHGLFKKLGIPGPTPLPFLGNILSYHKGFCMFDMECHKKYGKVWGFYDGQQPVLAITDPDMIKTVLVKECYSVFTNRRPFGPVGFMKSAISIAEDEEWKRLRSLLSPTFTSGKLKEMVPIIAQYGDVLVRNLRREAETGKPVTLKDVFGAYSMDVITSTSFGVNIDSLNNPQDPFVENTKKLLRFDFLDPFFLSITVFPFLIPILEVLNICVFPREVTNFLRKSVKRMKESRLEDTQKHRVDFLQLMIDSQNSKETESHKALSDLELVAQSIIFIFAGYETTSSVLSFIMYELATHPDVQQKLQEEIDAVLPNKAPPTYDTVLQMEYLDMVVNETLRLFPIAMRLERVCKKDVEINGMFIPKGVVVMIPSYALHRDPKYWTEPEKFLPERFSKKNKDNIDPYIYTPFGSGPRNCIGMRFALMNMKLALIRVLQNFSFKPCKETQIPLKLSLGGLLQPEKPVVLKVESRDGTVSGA
Chain of Induced myeloid leukemia cell differentiation protein Mcl-1 (Q07820 whole entry): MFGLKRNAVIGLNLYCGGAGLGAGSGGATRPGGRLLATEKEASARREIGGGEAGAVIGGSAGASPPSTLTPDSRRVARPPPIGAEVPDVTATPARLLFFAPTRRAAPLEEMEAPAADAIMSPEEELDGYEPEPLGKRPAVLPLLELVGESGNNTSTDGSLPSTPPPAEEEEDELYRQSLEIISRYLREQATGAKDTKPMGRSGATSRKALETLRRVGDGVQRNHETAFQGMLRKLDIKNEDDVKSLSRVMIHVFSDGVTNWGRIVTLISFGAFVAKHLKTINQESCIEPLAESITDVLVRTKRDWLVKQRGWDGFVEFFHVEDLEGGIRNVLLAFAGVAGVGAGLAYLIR

Structure (SMILES): O=C(c1ccccc1C(F)(F)F)N1CCN(S(=O)(=O)c2ccccc2)CC1
- IC50 (HEK293): > 67.6 µM (inactive)
- IC50 [1]: > 67.6 µM (inactive)

Structure (SMILES): Clc1ccc(OCc2noc(-c3ccsc3)n2)c(Cl)c1
- AC50 (HeLa): 111 µM (active)
- IC50 (HEK293): > 67.5 µM (inactive)
- IC50 [1]: > 67.5 µM (inactive)
- IC50 (Protein skinhead-1): > 100 µM (inactive)

Structure (SMILES): Nc1ccc2[nH]c(-c3ccccc3)nc2c1
- CC50 [2]: 100 µM (active)
- AC50 [3]: 2.19 µM (active)
- AC50 (Trypsin): 3.48 µM (active)
- AC50 (CAAX prenyl protease 2): 2.12 µM (active)
- IC50 [4]: 30.2 µM (active)

Structure (SMILES): NCCc1ccc(OCc2ccccc2)c(OCc2ccccc2)c1
- AC50 (A-375): 30.2 µM (active)
- AC50 [5]: 11.2 µM (active)
- IC50 [6]: > 20 µM (inactive)

Structure (SMILES): Cc1nc(N2CCOCC2)c2c(C)c(C(=O)Nc3ccccc3C(F)(F)F)sc2n1
- EC50 [7]: > 50 µM (active)
- AC50 (CAAX prenyl protease 2): 15 µM (active)

Structure (SMILES): COc1ccc(-c2cc3nc4ccccc4n3c(N)c2C#N)cc1
- IC50 [8]: > 66.6 µM (inactive)
- EC50 (Streptococcus): 15.7 µM (active)
- AC50 (HeLa): 143 µM (active)
- IC50 [9]: 2.52 µM (active)
- IC50 [10]: 7.98 µM (active)
- EC50 [11]: 1.45 µM (active)
- EC50 (Streptokinase A): > 150 µM (not active)

Structure (SMILES): COC(=O)c1cccc2c1NC(=O)C2=O
- IC50 (HEK293): > 67.6 µM (inactive)
- IC50 [1]: > 67.6 µM (inactive)

Structure (SMILES): COc1ccc(-c2cn3cccc(C)c3n2)cc1F
- AC50 (HeLa): > 350 µM (inactive)

Structure (SMILES): O=[N+]([O-])c1cccc(/C=C/c2nc(/C=N/c3ccccc3)c(O)o2)c1
- EC50 [12]: 19.2 µM (active)
- EC50 [13]: > 99 µM (inactive)
- EC50 [14]: > 300 µM (not active)
- EC50 [15]: 39.4 µM (active)

Structure (SMILES): Cc1cc(C)nc(SCC(=O)N/N=C\c2sccc2C)n1
- AC50 (Cytochrome P450 3A4): 15.8 µM (inconclusive)
- AC50 (Cytochrome P450 2D6): inconclusive
